Results reported in PMC12124432, “Antimicrobial Peptide‐Peptoid Macrocycles from the Polymyxin B2 Chemical Space” (Angewandte Chemie (International Ed. in English), 2025).
In brackets after ≈: the same amount, converted by molar mass. Numbered stars: 1 amine (or outer) side, 2 acyl side, 3 side chain; on linkers, the order of the positions; unused ones are H or OH. Bridge positions count the residues as written; N and C are the ends. Square brackets hold non-standard residues; d marks the D form. Peptide text beside a SMILES is read from it. * marks the point of attachment. NGly(CH2(3-pyridyl)) = O=C(O)CNCc1cccnc1; Propanoyl(3-cHex) = O=C(CCC1CCCCC1)*; Propanoyl(3-cPent) = O=C(CCC1CCCC1)*; Gly(NCH2CH2Ph) = O=C(O)CNCCc1ccccc1; Cyclopentylacetyl = O=C(CC1CCCC1)*; Gly(N-2-aminoethyl) = NCCNCC(=O)O; X1 = O=C(CN(Cc1ccccn1)[*:1])[*:2]; Pentanoyl(4-Me) = CC(C)CCC(=O)*; Gly(N(CH2)3NH2) = NCCCNCC(=O)O; Gly(N-cHex) = O=C(O)CNC1CCCCC1; Gly(N-CH2CH2OH) = O=C(O)CNCCO; N(iPr)Gly = CC(C)NCC(=O)O; Heptanoyl = CCCCCCC(=O)*; NHexGly = CCCCCCNCC(=O)O; Nphe = O=C(O)CNCc1ccccc1; Octanoyl = CCCCCCCC(=O)*; Dab = NCC[C@H](N)C(=O)O; Pentanoyl = CCCCC(=O)*; Nleu = CC(C)CNCC(=O)O; NPrGly = CCCNCC(=O)O; Nlys = NCCCCNCC(=O)O

Assays:
[1] = test system: E. coli W3110; assay type: cell-based, Escherichia coli; details: W3110, pH 8.5
Procedure: (§1) Minimal Inhibitory Concentration (MIC)
(§2) Antimicrobial activity was assayed for all the peptide-peptoids against P. aeruginosa PAO1, K. pneumoniae NCTC418, E. coli W3110, A. baumannii ATCC 19606, methicillin-resistant S. aureus COL (MRSA) and for selected peptides on P. aeruginosa PA14, as well as the clinical isolates ZEM-1A and ZEM9A, K. pneumoniae OXA-48, Enterobacter cloacae, Stenotrophomonas maltophilia and Staphylococus epidermidis. To determine the Minimal Inhibitory Concentration (MIC), Broth Microdilution method was used. A colony of bacteria was picked and grown in LB medium overnight at 37 °C. The next day, the culture was then regrown in LB medium to log phase (OD600 = 0.6 to 0.8), which lasted approximately 4 hours, and diluted to an OD600 of 0.022 in the desired medium (full MH or 12.5% MH).
(§3) The compounds were prepared as stock solutions of 2 mg/mL in sterilized MilliQ deionized water and then diluted in the desired media (full MH or 12.5% MH) to reach the first concentration tested (32 μg/mL). The compounds were added to the first well of a 96-well sterile, round bottom microtiter plates in polystyrene (TPP®, untreated) and diluted serially by ½ in the desired media (full MH or 12.5% MH), to a final volume of 150 µL/well. To each well was finally added 4 µL of the diluted bacterial suspension (see above), corresponding to approximately 5×10^5 CFU. For each test, two columns of the plate were kept for sterility control (medium only), growth control (medium with bacterial inoculum, no compound). The positive control, Polymyxin B (starting with a concentration of 16 µg/mL) in MH medium with bacterial inoculums, was introduced in the two first lines of the plate. The plates were incubated at 37 °C for ca. 18 hours under static conditions. 15 µL of 3-(4,5-dimethylthiazol-2-yl)-2,5-diphenyltetrazolium bromide (MTT)[7] (1 mg/mL in sterilized MilliQ deionized water) were added to each well and the plates were incubated for 20-30 minutes at room temperature. The […]
(§4) minimal inhibitory concentration (MIC) was defined as the lowest concentration of the compound that inhibits the visible growth of the tested bacteria (yellow) with the unaided eye.
(§5) Minimal Hemolytic Concentration (MHC) […]
(§6) 11. Minimal inhibitory in presence of salt
(§7) The same procedure as for the antibacterial activity measurements by minimal inhibitory concentration assay (MIC) was applied. The media, 12.5% Mueller-Hinton broth was this time supplemented with different salt concentrations (0, 100, 200 300 mM NaCl). […]
(§8) All data, in μg/mL, measured against P. aeruginosa PAO1, with or without addition of salt (NaCl). The values were measured in dilute medium (12.5% MH) and at slightly basic pH (pH = 8.5), after incubation for 16-20 h at 37 °C. Values represent two different duplicate MIC determinations.

[2] = test system: P. aeruginosa PAO1; assay type: cell-based, Pseudomonas aeruginosa; details: PAO1, pH 8.5
Procedure: as §1, §2, §3, §4, §5, §6
as §7, with “NaCl). The MIC activities were then determined against Pseudomonas aeruginosa PAO1 and Escherichia coli” for “NaCl).”
Table S6. Minimal inhibitory concentration (MIC) on P. aeruginosa PAO1 as function of salt […]
as §8

MIC on E. coli, 0 mM NaCl [1] | MIC on E. coli, 100 mM NaCl [1] | MIC on E. coli, 200 mM NaCl [1] | MIC on E. coli, 300 mM NaCl [1] | MIC on P. aeruginosa, 0 mM NaCl [2] | MIC on P. aeruginosa, 100 mM NaCl [2] | MIC on P. aeruginosa, 200 mM NaCl [2] | MIC on P. aeruginosa, 300 mM NaCl [2] | Structure (SMILES)
2 µg/mL (≈ 1.51 µM) | 16 µg/mL (≈ 12.1 µM) | 64 µg/mL (≈ 48.4 µM) | > 64 µg/mL | 2 µg/mL (≈ 1.51 µM) | 32 µg/mL (≈ 24.2 µM) | > 64 µg/mL | > 64 µg/mL | CC(C)C[C@H](NC(=O)CN(CC(C)C)C(=O)[C@H](CC(C)C)NC(=O)CN(CCCCN)C(=O)[C@H](CC(C)C)NC(=O)CN(CC(C)C)C(=O)[C@H](CCCCN)NC(=O)CN(CC(C)C)C(=O)[C@H](CC(C)C)NC(=O)CN(CCCCN)C(=O)[C@@H](N)CCCCN)C(N)=O [EB9, reference compound] (H-K[Nlys]L[Nleu]K[Nleu]L[Nlys]L[Nleu]L-NH2)
1 µg/mL (≈ 0.885 µM) | 16 µg/mL (≈ 14.2 µM) | 64 µg/mL (≈ 56.6 µM) | > 64 µg/mL | 4 µg/mL (≈ 3.54 µM) | > 64 µg/mL | > 64 µg/mL | > 64 µg/mL | CCCCCCCC(=O)N(CCN)CC(=O)N[C@@H](Cc1ccc(O)cc1)C(=O)N[C@@H](CCCCN)C(=O)N[C@H]1CCNC(=O)[C@H](CCCCN)NC(=O)CN(CCN)C(=O)[C@H](CCCNC(=N)N)NC(=O)[C@H](CCCCN)NC1=O [EB14] (Octanoyl-[Gly(N-2-aminoethyl)]YK[Dab]KR[Gly(N-2-aminoethyl)]K; lactam 4-C)
0.5 µg/mL (≈ 0.448 µM) | 32 µg/mL (≈ 28.7 µM) | > 64 µg/mL | > 64 µg/mL | 4 µg/mL (≈ 3.59 µM) | > 64 µg/mL | > 64 µg/mL | > 64 µg/mL | CCCCCCCC(=O)N(CC(=O)N(CCN)CC(=O)N[C@@H](CCC(N)=O)C(=O)N[C@H]1CCNC(=O)[C@H](CCCCN)NC(=O)[C@H](CCCCN)NC(=O)CN(CCCCN)C(=O)[C@H](CCCCN)NC1=O)Cc1ccccn1 [EB16] (Octanoyl-[X1][Gly(N-2-aminoethyl)]Q[Dab]K[Nlys]KK; lactam 4-C)
1 µg/mL (≈ 0.855 µM) | 64 µg/mL (≈ 54.7 µM) | > 64 µg/mL | > 64 µg/mL | 16 µg/mL (≈ 13.7 µM) | > 64 µg/mL | > 64 µg/mL | > 64 µg/mL | CC(C)[C@@H]1NC(=O)[C@H](CCCCN)NC(=O)CN(CCN)C(=O)[C@H](CC(N)=O)NC(=O)[C@@H](NC(=O)CN(CCN)C(=O)[C@H](CCCCN)NC(=O)CN(CCc2ccccc2)C(=O)CC2CCCC2)CCNC(=O)[C@H](CCCCN)NC1=O [EB20] (Cyclopentylacetyl-[Gly(NCH2CH2Ph)]K[Gly(N-2-aminoethyl)][Dab]N[Gly(N-2-aminoethyl)]KVK; lactam 4-C; N-terminus assumed)
1 µg/mL (≈ 0.769 µM) | 16 µg/mL (≈ 12.3 µM) | > 64 µg/mL | > 64 µg/mL | 4 µg/mL (≈ 3.08 µM) | > 64 µg/mL | > 64 µg/mL | > 64 µg/mL | CCCCCCN(CC(=O)N[C@H]1CCNC(=O)[C@H](CCCCN)NC(=O)CN(CCN)C(=O)CN(CCN)C(=O)[C@H](CCCCN)NC(=O)[C@H](CC(N)=O)NC(=O)[C@H](CCCCN)NC1=O)C(=O)[C@H](CCCCN)NC(=O)CN(Cc1ccccc1)C(=O)CCCC [EB22] (Pentanoyl-[Nphe]K[NHexGly][Dab]KNK[Gly(N-2-aminoethyl)][Gly(N-2-aminoethyl)]K; lactam 4-C)
2 µg/mL (≈ 1.63 µM) | > 64 µg/mL | > 64 µg/mL | > 64 µg/mL | 16 µg/mL (≈ 13.1 µM) | > 64 µg/mL | > 64 µg/mL | > 64 µg/mL | CCCCCCC(=O)N(CC(=O)N(CCCN)CC(=O)N(CCN)CC(=O)N[C@H]1CCNC(=O)[C@H](CCCCN)NC(=O)CN(C2CCCCC2)C(=O)CN(CCN)C(=O)[C@H](CCC(N)=O)NC(=O)[C@H](CCCNC(=N)N)NC1=O)Cc1ccccc1 [EB23] (Heptanoyl-[Nphe][Gly(N(CH2)3NH2)][Gly(N-2-aminoethyl)][Dab]RQ[Gly(N-2-aminoethyl)][Gly(N-cHex)]K; lactam 4-C)
4 µg/mL (≈ 3.46 µM) | 16 µg/mL (≈ 13.8 µM) | > 64 µg/mL | > 64 µg/mL | 16 µg/mL (≈ 13.8 µM) | > 64 µg/mL | > 64 µg/mL | > 64 µg/mL | CCCN1CC(=O)N[C@@H](CC(N)=O)C(=O)N[C@@H](CCCCN)C(=O)N(CCCN)CC(=O)N[C@@H](CCCCN)C(=O)NCC[C@H](NC(=O)[C@H](CCCNC(=N)N)NC(=O)CNC(=O)CN(CCc2ccccc2)C(=O)CCC(C)C)C1=O [EB26] ({Pentanoyl(4-Me)}-[Gly(NCH2CH2Ph)]GR[Dab][NPrGly]NK[Gly(N(CH2)3NH2)]K; lactam 4-C)
4 µg/mL (≈ 3.38 µM) | > 64 µg/mL | > 64 µg/mL | > 64 µg/mL | 32 µg/mL (≈ 27.1 µM) | > 64 µg/mL | > 64 µg/mL | > 64 µg/mL | NCCCC[C@@H]1NC(=O)CN(CCO)C(=O)[C@@H]2CCCN2C(=O)CN(CCCN)C(=O)[C@@H](NC(=O)[C@H](CC(N)=O)NC(=O)[C@H](CCCCN)NC(=O)[C@H](CCCCN)NC(=O)CN(Cc2ccccc2)C(=O)CCC2CCCC2)CCNC1=O [EB32] ({Propanoyl(3-cPent)}-[Nphe]KKN[Dab][Gly(N(CH2)3NH2)]P[Gly(N-CH2CH2OH)]K; lactam 5-C)
8 µg/mL (≈ 7.08 µM) | > 64 µg/mL | > 64 µg/mL | > 64 µg/mL | 32 µg/mL (≈ 28.3 µM) | > 64 µg/mL | > 64 µg/mL | > 64 µg/mL | CCCCCCCC(=O)N(CC(=O)N(CCCN)CC(=O)N[C@@H](CCC(N)=O)C(=O)N[C@H]1CCNC(=O)[C@H](CCCCN)NC(=O)[C@H](CCCCN)NC(=O)[C@H](CCC(N)=O)NC(=O)CN(CCCCN)C1=O)Cc1cccnc1 [EB34] (Octanoyl-[NGly(CH2(3-pyridyl))][Gly(N(CH2)3NH2)]Q[Dab][Nlys]QKK; lactam 4-C)
16 to 32 µg/mL | > 64 µg/mL | > 64 µg/mL | > 64 µg/mL | 32 µg/mL (≈ 27 µM) | > 64 µg/mL | > 64 µg/mL | > 64 µg/mL | CC(C)N(CC(=O)N[C@@H](CC(N)=O)C(=O)N[C@H]1CCNC(=O)[C@H](CCCCN)NC(=O)[C@H](CC(N)=O)NC(=O)CN(CCCCN)C(=O)[C@H](CCCCN)NC(=O)[C@H](CO)NC1=O)C(=O)CN(Cc1ccccc1)C(=O)CCC1CCCCC1 [EB36] ({Propanoyl(3-cHex)}-[Nphe][N(iPr)Gly]N[Dab]SK[Nlys]NK; lactam 4-C)
32 µg/mL (≈ 25.8 µM) | > 64 µg/mL | > 64 µg/mL | > 64 µg/mL | 32 µg/mL (≈ 25.8 µM) | > 64 µg/mL | > 64 µg/mL | > 64 µg/mL | CC(C)N1CC(=O)N[C@@H](CCCCN)C(=O)N[C@@H](CO)C(=O)N[C@@H](CCCCN)C(=O)NCC[C@H](NC(=O)[C@H](CCCCN)NC(=O)[C@@H]2CCCN2C(=O)CN(CCc2ccccc2)C(=O)CCC2CCCCC2)C(=O)N[C@@H](CC(N)=O)C(=O)NCC1=O [EB37] ({Propanoyl(3-cHex)}-[Gly(NCH2CH2Ph)]PK[Dab]NG[N(iPr)Gly]KSK; lactam 4-C)
